According to paper PMC10272180, “Ancient medicinal plant rosemary contains a highly efficacious and isoform-selective KCNQ potassium channel opener” (Communications Biology, 2023):

Tests used:
KCNQ3*-G245A = KCNQ3*-G245A (Homo sapiens, UniProt O43525, A315T/G245A); assay: TEVC of mutant KCNQ3*-G245A in oocytes; format: cell-based; conditions: 100 µM
Source text: (§1) We generated cRNA transcripts encoding human KCNQ1, 2, 3, and 5 (wild-type and mutant) by in vitro transcription using the mMessage mMachine kit (Thermo Fisher Scientific, Waltham, MA, USA) according to manufacturer’s instructions, after vector linearization, from cDNA sub-cloned into expression vectors (pTLNx and pXOOM) incorporating Xenopus laevis β-globin 5’ and 3’ UTRs flanking the coding region to enhance translation and cRNA stability. Mutant KCNQ cDNAs were generated by Genscript (Piscataway, NJ, USA) and cRNAs made as above. We injected defolliculated stage V and VI Xenopus laevis oocytes (Xenoocyte, Dexter, MI, USA) with KCNQ cRNAs (2–10 ng) and incubated the oocytes at 16 °C in ND96 oocyte storage solution containing penicillin and streptomycin, with daily washing, for 2–4 days prior to two-electrode voltage-clamp (TEVC) recording.
(§2) We performed TEVC at room temperature using an OC-725C amplifier (Warner Instruments, Hamden, CT, USA) and pClamp10 software (Molecular Devices, Sunnyvale, CA, USA) 2–4 days after cRNA injection. […] We recorded currents in response to voltage pulses between −120 mV and +40 mV at 10 mV intervals from a holding potential of −80 mV, to yield current-voltage relationships and examine activation kinetics. We analyzed data using Clampfit (Molecular Devices) and Graphpad Prism software (GraphPad, San Diego, CA, USA), stating values as mean ± SEM. […]

KCNQ2/3/5 = molecular target: T1, KCNQ2/3/5 (Homo sapiens, UniProt O43525+O43526+Q9NR82); assay: TEVC of KCNQ2/3/5 heteromers expressed in Xenopus laevis oocytes; format: cell-based
T1 construct: expressed in transfected cells; host or cells: Xenopus laevis oocytes co-injected with cRNAs (1:1:1 according to the authors' reply)
Source text: as §1
(§3) We performed TEVC at room temperature using an OC-725C amplifier (Warner Instruments, Hamden, CT, USA) and pClamp10 software (Molecular Devices, Sunnyvale, CA, USA) 2–4 days after cRNA injection. We placed oocytes in a small-volume oocyte bath (Warner) and viewed them with a dissection microscope for cellular electrophysiology. We sourced chemicals from Sigma-Aldrich (St. Louis, MO, USA) and Combi-Blocks (San Diego, CA, USA). We studied effects of Salvia rosmarinus extracts and of compounds, solubilized directly in bath solution (in mM): 96 NaCl, 4 KCl, 1 MgCl2, 1 CaCl2, 10 HEPES (pH 7.6). We introduced extracts or compounds into the oocyte recording bath by gravity perfusion at a constant flow of 1 ml per minute for 3 min prior to recording. Pipettes were of 1-2 MΩ resistance when filled with 3 M KCl. We recorded currents in response to voltage pulses between −120 mV and +40 mV at 10 mV intervals from a holding potential of −80 mV, to yield current-voltage relationships and examine activation kinetics. We analyzed data using Clampfit (Molecular Devices) and Graphpad Prism software (GraphPad, San Diego, CA, USA), stating values as mean ± SEM. We plotted raw or normalized tail currents versus prepulse voltage and fitted with a single Boltzmann function:1 g=(A1−A2)/1+exp[V1/2−V/Vs]y+A2 where g is the normalized tail conductance, A1 is the initial value at -∞, A2 is the final value at +∞, V1/2 is the half-maximal voltage of activation and Vs the slope factor. We fitted activation and deactivation kinetics with single exponential functions.

KCNQ3*-R242A = KCNQ3*-R242A (Homo sapiens, UniProt O43525, A315T/R242A); assay: TEVC of mutant KCNQ3*-R242A in oocytes; format: cell-based
Source text: as §1, §3

[1] = cited from earlier work
[2] = molecular target: T2, KCNQ3* coexpressed with Danio rerio VSP (DrVSP) (Homo sapiens, UniProt O43525, A315T); assay: TEVC of KCNQ3* coexpressed with DrVSP, PIP2 depletion at +120 mV; format: cell-based; conditions: 5 µM
T2 construct: expressed in transfected cells; host or cells: Xenopus laevis oocytes
Source text: Under baseline conditions, binding of the […], lipid-derived signaling molecule phosphatidylinositol 4,5-bisphosphate (PIP2) to KCNQ3 (and other KCNQ isoforms) is required for efficient coupling of the voltage sensor to pore opening and thus voltage-dependent gating[22],[23]. […] Another strategy for PIP2 reduction is to express a voltage-sensitive phosphatase (VSP) that reduces PIP2 levels upon membrane depolarization. […]
as §2

KCNQ3/5 = molecular target: T3, KCNQ3/5 (Homo sapiens, UniProt O43525+Q9NR82); assay: TEVC of KCNQ3/5 heteromers expressed in Xenopus laevis oocytes; format: cell-based
T3 construct: expressed in transfected cells; host or cells: Xenopus laevis oocytes co-injected with cRNAs
Source text: as §1
as §3, with “We recorded currents in response to voltage pulses between −120 mV and +40 mV at 10 mV intervals from a holding potential of −80 mV, to yield current-voltage relationships and examine activation kinetics.” left out

KCNQ5 = KCNQ5 (Homo sapiens, UniProt Q9NR82); assay: TEVC of KCNQ5 homomers expressed in Xenopus laevis oocytes; format: cell-based
Source text: as §1, §3

Compound: CC(C)c1cc2c(c(O)c1O)[C@@]1(C(=O)O)CCCC(C)(C)[C@@H]1CC2 [Carnosic acid, carnosic acid]
- Slope (KCNQ3*-G245A): 12.79 ± 4.65 mV
- V0.5 Normalized tail current (KCNQ3*-G245A): -129.4 ± 1.24 mV
- V0.5 Normalized tail current (KCNQ2/3/5; 0.1 µM): -43.51 ± 1.17 mV
- V0.5 Normalized tail current (KCNQ2/3/5; 1 µM): -47.43 ± 0.94 mV
- V0.5 Normalized tail current (KCNQ2/3/5; 3 µM): -49.89 ± 0.88 mV
- V0.5 Normalized tail current (KCNQ2/3/5; 10 µM): -52.31 ± 0.77 mV
- V0.5 Normalized tail current (KCNQ2/3/5; 30 µM): -54.68 ± 0.89 mV
- V0.5 Normalized tail current (KCNQ2/3/5; 100 µM): -57.42 ± 1.03 mV
- EC50 (KCNQ2/3/5; EC50 EM): 3.13 ± 0.44 µM
- EC50 (KCNQ2/3/5; EC50 V0.5 Activation): 2.02 ± 0.44 µM
- EC50 (KCNQ3*-R242A): 8.31 ± 0.14 µM
- V0.5 Normalized tail current (KCNQ3*-R242A; 0.1 µM): -21.11 ± 0.68 mV
- V0.5 Normalized tail current (KCNQ3*-R242A; 1 µM): -24.52 ± 0.42 mV
- V0.5 Normalized tail current (KCNQ3*-R242A; 3 µM): -27.59 ± 0.38 mV
- V0.5 Normalized tail current (KCNQ3*-R242A; 10 µM): -30.42 ± 0.37 mV
- V0.5 Normalized tail current (KCNQ3*-R242A; 30 µM): -35.30 ± 0.41 mV
- Slope (KCNQ3*-R242A; 100 µM): 8.88 ± 0.59 mV
- efficacy in terms of ΔV0.5act versus KCNQ3* (KCNQ3*-R242A; dose-response): halved
- blood brain barrier crossing [1]: crosses the blood brain barrier
- effect on DrVSP-induced KCNQ3* current decay [2]: reduced or prevented
- V0.5 Normalized tail current (KCNQ3/5; 0.1 µM): -41.88 ± 0.50 mV
- V0.5 Normalized tail current (KCNQ3/5; 1 µM): -47.59 ± 0.51 mV
- V0.5 Normalized tail current (KCNQ3/5; 3 µM): -52.07 ± 0.47 mV
- V0.5 Normalized tail current (KCNQ3/5; 10 µM): -56.02 ± 0.57 mV
- V0.5 Normalized tail current (KCNQ3/5; 30 µM): -62.10 ± 0.87 mV
- V0.5 Normalized tail current (KCNQ3/5; 100 µM): -68.83 ± 1.11 mV
- channel opening (KCNQ3/5; 100 µM): powerful opener
- EC50 (KCNQ3/5; EC50 EM): 4.21 ± 0.16 µM
- EC50 (KCNQ3/5; EC50 V0.5 Activation): 4.53 ± 0.11 µM
- V0.5 Normalized tail current (KCNQ5; 0.1 µM): -42.57 ± 0.34 mV
- V0.5 Normalized tail current (KCNQ5; 1 µM): -42.20 ± 0.27 mV
- V0.5 Normalized tail current (KCNQ5; 3 µM): -42.54 ± 0.31 mV
- V0.5 Normalized tail current (KCNQ5; 10 µM): -43.64 ± 0.36 mV
- V0.5 Normalized tail current (KCNQ5; 30 µM): -45.91 ± 0.40 mV
- V0.5 Normalized tail current (KCNQ5; 100 µM): -50.99 ± 0.49 mV
- constitutively activated current at −120 mV (KCNQ5; 100 µM): ~ 5%
- EC50 (KCNQ5; EC50 EM): 43.4 ± 0.28 µM
- EC50 (KCNQ5; EC50 V0.5 Activation): 231 ± 75 µM
